Source: ChEMBL document CHEMBL1201862, “PubChem BioAssay data set” (2004)
Blank lines part the entries; values can stand above or below the compound they belong to. The source made the active and inactive calls.

Tests used:
[1] = target: Paired box protein Pax-8 (Homo sapiens, UniProt Q06710); assay: PAX8 transcriptional activity inhibition in RMG-I – RMG-I cells, luciferase, cherry-pick, dose response (AID 687027); type: functional, cell-based;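 further: luciferase reporter driven by Pax8 target thyroperoxidase promoter measured by SteadyGlo luminescence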
[2] = tested on: BJ; assay: BJ-TERT fibroblast viability loss – cell-based, RAS-independent, luminescence, dose response (AID 1933); type: functional; settings: Homo sapiens
[3] = HEK-293T viability loss after treatment – luminescence, T-cell screen hits, cytotoxicity control for TCR NF-kB inhibitor project, dose response (AID 489026); type: functional, cell-based;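 further: cells exposed to compound about 14 hours before the viability readout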
[4] = tested on: BJ; assay: cells; type: functional, cell-based; settings: Homo sapiens
[5] = DRD fibroblast viability loss – cell-based, non-viral oncogenic, luminescence, dose response (AID 1934); type: functional; settings: Homo sapiens
[6] = tested on: HEK293; assay: cells; type: functional, cell-based; settings: Homo sapiens
[7] = tested on: BJ; assay: growth inhibition of engineered Ras-driven BJ cells – cell-based, alamar blue fluorescence, cherrypicked samples, dose response (AID 2631); type: functional; settings: Homo sapiens;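 further: confirmatory dose-response assay in RAS-dependent BJ fibroblasts engineered with TERT, LT and ST, with cytotoxicity read by fluorescence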
[8] = tested on: BJ; assay: BJ-TERT-LT-ST fibroblast viability loss – cell-based, RAS-independent, luminescence, dose response (AID 1935); type: functional; settings: Homo sapiens;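 further: BJ fibroblasts immortalized with TERT plus LT and ST oncogenes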
[9] = tested on: HEK293; assay: NOD2 signaling inhibitors in MDP-stimulated cells, cell-based, uHTS, luminescence (AID 2001); type: functional; settings: Homo sapiens
[10] = tested on: HEK293; assay: inhibition of NOD1-driven NF-kB reporter – cell-based, luminescence, uHTS, primary screen (AID 1578); type: functional; settings: Homo sapiens
[11] = tested on: HEK293; assay: cells; type: functional, cell-based; settings: Homo sapiens; remark: listed apart in the source
[12] = general cell-killing toxicity readout – plate reader, dry powder samples, cytotoxicity control for PAX8 inhibitor project, dose response (AID 743021); type: functional, cell-based
[13] = target: Genome polyprotein (dengue virus type 2, UniProt P29990); assay: flavivirus cap methylation enzyme inhibition – biochemical, confirmation dose response, primary screen (AID 588689); type: functional
[14] = target: T1, Zinc finger protein mex-5 (Caenorhabditis elegans, UniProt Q9XUB2); assay: potency of MEX-5 RNA-binding blockers – biochemical, C. elegans, fluorescence polarization, dose response (AID 1960)
T1 sequence (Q9XUB2 whole entry): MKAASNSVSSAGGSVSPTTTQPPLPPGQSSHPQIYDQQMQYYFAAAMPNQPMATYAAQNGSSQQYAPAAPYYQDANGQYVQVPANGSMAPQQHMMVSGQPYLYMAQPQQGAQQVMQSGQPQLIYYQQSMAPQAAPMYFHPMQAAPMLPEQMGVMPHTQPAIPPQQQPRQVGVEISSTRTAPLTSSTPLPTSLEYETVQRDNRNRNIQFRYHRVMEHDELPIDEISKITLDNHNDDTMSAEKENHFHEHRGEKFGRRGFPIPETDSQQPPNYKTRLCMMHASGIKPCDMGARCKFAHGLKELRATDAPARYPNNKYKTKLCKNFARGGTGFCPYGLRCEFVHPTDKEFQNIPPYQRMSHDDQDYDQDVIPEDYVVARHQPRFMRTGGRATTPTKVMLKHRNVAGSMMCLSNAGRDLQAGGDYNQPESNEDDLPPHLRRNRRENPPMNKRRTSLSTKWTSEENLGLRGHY

[15] = target: T2, RNA-binding protein pos-1 (Caenorhabditis elegans, UniProt G5EF15); assay: disruptors of C. elegans POS-1 RNA interaction – biochemical, fluorescence polarization, dose response (AID 1964);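 further: purified POS-1 fused to maltose binding protein made in E. coli; potency of compounds blocking POS-1 binding to fluorescent RNA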
T2 sequence (G5EF15 whole entry): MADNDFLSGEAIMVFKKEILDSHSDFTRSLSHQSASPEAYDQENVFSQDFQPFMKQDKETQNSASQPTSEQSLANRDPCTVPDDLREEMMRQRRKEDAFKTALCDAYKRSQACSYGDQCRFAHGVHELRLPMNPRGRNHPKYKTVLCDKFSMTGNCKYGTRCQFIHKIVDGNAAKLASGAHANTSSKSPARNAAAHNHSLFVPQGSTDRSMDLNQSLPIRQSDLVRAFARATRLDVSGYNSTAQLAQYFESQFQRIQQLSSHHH

[16] = target: Albumin (Bos taurus, UniProt P02769); assay: Counterscreen for inhibitors of T-cell receptor (TCR)-CD3 interaction: Fluorescence-based biochemical high throughput dose response assay to identify inhibitors of T-cell receptor (TCR)-CD3 interaction using a TAMRA-labeled BSA probe.; type: functional
[17] = target: Mitogen-activated protein kinase 10 (Homo sapiens, UniProt P53779); assay: Dose response biochemical screening assay for inhibitors of c-Jun N-Terminal Kinase 3 (JNK3). [Related pubchem assays: 746 ]
[18] = non-specific 3'UTR reporter inhibition in Clone20-Shn3RL – cell-based, Renilla luciferase, cherry-picked, counter-screen for Shn3 inhibitor project, dose response (AID 624133); type: functional
[19] = loss of viability in HepG2 cells – cell-based, CellTiter-Glo, cherry-picked, cytotoxicity control for Shn3 inhibitor project, dose response (AID 624134); type: functional
[20] = target: T3, COUP transcription factor 2 (Homo sapiens, UniProt P24468); assay: Luminescence-based cell-based high throughput dose response assay to identify inhibitors of COUP-TFII (NR2F2).; type: functional;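 further: HEK293 cells transiently cotransfected with COUP-TFII expression vector and reporter; luciferase reporter luminescence driven by COUP-TFII from the pX2-168 reporter plasmid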
T3 sequence (P24468 whole entry): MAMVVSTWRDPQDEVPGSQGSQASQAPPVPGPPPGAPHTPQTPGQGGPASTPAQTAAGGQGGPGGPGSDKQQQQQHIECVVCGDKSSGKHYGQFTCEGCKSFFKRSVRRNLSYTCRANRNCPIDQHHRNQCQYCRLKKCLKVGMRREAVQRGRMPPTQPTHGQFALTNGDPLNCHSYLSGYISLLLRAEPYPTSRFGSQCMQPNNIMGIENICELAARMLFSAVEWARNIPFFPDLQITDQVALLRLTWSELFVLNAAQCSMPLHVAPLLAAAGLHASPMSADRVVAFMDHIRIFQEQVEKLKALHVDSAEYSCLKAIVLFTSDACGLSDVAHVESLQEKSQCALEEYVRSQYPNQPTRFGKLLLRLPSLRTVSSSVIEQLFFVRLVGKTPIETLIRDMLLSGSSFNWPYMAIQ

[21] = reduction of Shn3 3'UTR-driven luciferase in osteoblasts – cell-based, Clone20 osteoblasts, firefly luciferase, cherry-picked, dose response (AID 624132); type: functional;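 further: firefly luciferase luminescence from reporter carrying the Shn3 3'UTR in osteoblasts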
[22] = blockers of bursicon-stimulated LGR2 cAMP reporter – cell-based, HEK293, CRE-luciferase reporter, cherry pick, set 2, dose response (AID 743343); type: functional;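 further: transfected cells were stimulated with diluted bursicon conditioned medium after compound addition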
[23] = blockade of melanocortin 4 receptor signaling – cell-based, plate reader, cherry pick, counter-screen for LGR2 antagonist project, dose response (AID 743444); type: functional;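 further: transfected HEK 293 cells stimulated with alpha-MSH peptide; potency of inhibitors of the alpha-MSH evoked signal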
[24] = A549 cell cytotoxicity, dose response, cytotoxicity control, plate reader, cherry-pick, antagonist series (AID 743412); type: functional, cell-based
[25] = toxicity toward HepG2 liver cells – cell-based, plate reader, cherry-pick, antagonist series, cytotoxicity control, dose response (AID 743416); type: functional
[26] = target: NAD-dependent protein deacylase sirtuin-5, mitochondrial (Homo sapiens, UniProt Q9NXA8); assay: sirtuin-5 deacylation blockers, concentration series – biochemical, fluorescence imaging, cherry-pick, set 5, dose response (AID 720591);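 further: desuccinylation of succinyl peptide AMC substrate read as fluorescence after trypsin release; potency of inhibitors that lower fluorescence and may act on trypsin instead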
[27] = inhibition of ADAM10 peptide cleavage – biochemical, FRET peptide substrate, recombinant human ADAM10, selectivity assay for ADAM17 exosite inhibitor project, dose response (AID 743259);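 further: ADAM10 enzyme cleaving a FRET peptide substrate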
[28] = tested on: INS1; assay: INS-1E survival protection against cytokine death – cell-based, luminescence, retest, dose response (AID 449756); type: functional; settings: Rattus norvegicus;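 further: cell death triggered by IL-1 beta plus TNF-alpha plus IFN-gamma mixture; protective hits raise ATP signal compared with cytokine alone wells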
[29] = target: Disintegrin and metalloproteinase domain-containing protein 17 (Homo sapiens, UniProt P78536); assay: exosite inhibitors of ADAM17, dose response, biochemical (AID 743260)
[30] = target: Peroxisome proliferator-activated receptor gamma/Nuclear receptor coactivator 2 (Homo sapiens, UniProt P37231); assay: (§1) TR-FRET dose response biochemical High Throughput Screening assay for agonists of the steroid receptor coactivator 2 (SRC-2) recruitment by the peroxisome proliferator-activated receptor gamma (PPAR gamma): non-selective agonists. [Related pubchem assays: 1297, 1032 ]; type: functional
[31] = target: Peroxisome proliferator-activated receptor gamma/Nuclear receptor coactivator 1 (Homo sapiens, UniProt P37231); assay: as §1, with “1 (SRC-1)” for “2 (SRC-2)”, “assays (depositor defined):AID1300, AID1808, AID504735, AID631]” for “assays: 1297, 1032 ]”; type: protein assay
[32] = target: Peroxisome proliferator-activated receptor gamma/Nuclear receptor coactivator 3 (Homo sapiens, UniProt P37231); assay: as §1, with “3 (SRC-3)” for “2 (SRC-2)”, “1301 (Confirmation screen.), 1048 (Primary screen.)]” for “1297, 1032 ]”; type: functional

Disintegrin and metalloproteinase domain-containing protein 17, sequence (P78536 whole entry, the tested form may be a part): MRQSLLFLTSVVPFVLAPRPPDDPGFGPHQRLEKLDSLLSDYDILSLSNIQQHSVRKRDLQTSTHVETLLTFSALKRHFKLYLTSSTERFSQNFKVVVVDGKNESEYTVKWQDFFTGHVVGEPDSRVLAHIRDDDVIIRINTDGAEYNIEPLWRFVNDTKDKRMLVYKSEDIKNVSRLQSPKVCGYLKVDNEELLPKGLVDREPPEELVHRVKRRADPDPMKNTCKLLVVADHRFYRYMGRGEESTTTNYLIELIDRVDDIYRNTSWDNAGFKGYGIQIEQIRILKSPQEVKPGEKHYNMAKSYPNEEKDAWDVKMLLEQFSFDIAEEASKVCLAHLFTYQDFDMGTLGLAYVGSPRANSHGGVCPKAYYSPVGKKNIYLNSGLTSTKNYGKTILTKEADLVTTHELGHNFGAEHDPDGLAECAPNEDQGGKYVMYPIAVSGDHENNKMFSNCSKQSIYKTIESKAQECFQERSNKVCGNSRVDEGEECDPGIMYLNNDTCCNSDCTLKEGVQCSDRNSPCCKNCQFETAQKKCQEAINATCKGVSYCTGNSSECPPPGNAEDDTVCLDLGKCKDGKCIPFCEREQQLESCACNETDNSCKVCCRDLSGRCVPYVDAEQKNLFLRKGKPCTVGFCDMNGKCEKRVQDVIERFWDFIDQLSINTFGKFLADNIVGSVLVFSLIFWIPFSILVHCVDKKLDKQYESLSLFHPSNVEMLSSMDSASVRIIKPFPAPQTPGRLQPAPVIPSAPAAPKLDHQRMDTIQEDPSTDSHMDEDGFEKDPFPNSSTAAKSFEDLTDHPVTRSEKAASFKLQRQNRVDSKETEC
NAD-dependent protein deacylase sirtuin-5, mitochondrial, sequence (Q9NXA8 whole entry): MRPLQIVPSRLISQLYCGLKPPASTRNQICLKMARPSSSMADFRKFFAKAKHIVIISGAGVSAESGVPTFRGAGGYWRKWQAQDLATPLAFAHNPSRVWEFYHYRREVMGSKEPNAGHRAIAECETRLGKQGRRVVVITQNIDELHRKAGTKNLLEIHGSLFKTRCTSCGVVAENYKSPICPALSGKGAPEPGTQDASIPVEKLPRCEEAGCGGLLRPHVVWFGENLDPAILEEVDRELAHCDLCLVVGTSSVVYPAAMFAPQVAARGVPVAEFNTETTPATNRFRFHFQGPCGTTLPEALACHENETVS
Mitogen-activated protein kinase 10, sequence (P53779 whole entry): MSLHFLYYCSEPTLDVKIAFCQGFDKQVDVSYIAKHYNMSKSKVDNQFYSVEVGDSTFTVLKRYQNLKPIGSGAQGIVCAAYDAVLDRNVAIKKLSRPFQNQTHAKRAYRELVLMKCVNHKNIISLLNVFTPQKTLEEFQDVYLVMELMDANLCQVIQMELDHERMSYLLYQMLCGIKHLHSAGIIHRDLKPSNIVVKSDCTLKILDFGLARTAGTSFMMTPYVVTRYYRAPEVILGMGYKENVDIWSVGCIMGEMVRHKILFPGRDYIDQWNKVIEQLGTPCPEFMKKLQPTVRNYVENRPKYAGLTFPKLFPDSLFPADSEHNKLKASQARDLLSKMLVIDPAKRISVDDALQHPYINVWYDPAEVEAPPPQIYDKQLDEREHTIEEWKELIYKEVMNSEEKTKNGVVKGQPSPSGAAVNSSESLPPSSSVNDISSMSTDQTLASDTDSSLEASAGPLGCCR
Albumin, sequence (P02769 whole entry): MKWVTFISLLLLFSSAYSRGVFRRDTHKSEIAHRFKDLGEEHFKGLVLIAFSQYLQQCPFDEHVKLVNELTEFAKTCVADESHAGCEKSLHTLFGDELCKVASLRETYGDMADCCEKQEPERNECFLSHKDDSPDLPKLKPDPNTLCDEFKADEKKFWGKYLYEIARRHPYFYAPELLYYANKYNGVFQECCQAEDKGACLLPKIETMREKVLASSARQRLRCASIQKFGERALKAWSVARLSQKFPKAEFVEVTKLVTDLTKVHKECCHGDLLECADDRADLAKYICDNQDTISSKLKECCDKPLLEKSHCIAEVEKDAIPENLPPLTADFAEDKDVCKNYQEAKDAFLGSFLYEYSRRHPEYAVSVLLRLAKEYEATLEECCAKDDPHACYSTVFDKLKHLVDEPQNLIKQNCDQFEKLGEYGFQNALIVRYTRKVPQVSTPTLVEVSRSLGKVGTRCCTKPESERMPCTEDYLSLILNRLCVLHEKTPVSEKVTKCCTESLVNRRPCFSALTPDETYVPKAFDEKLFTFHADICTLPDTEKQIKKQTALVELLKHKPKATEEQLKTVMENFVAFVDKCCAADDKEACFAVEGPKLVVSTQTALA
Genome polyprotein, sequence (P29990 2492-3391 limits assumed): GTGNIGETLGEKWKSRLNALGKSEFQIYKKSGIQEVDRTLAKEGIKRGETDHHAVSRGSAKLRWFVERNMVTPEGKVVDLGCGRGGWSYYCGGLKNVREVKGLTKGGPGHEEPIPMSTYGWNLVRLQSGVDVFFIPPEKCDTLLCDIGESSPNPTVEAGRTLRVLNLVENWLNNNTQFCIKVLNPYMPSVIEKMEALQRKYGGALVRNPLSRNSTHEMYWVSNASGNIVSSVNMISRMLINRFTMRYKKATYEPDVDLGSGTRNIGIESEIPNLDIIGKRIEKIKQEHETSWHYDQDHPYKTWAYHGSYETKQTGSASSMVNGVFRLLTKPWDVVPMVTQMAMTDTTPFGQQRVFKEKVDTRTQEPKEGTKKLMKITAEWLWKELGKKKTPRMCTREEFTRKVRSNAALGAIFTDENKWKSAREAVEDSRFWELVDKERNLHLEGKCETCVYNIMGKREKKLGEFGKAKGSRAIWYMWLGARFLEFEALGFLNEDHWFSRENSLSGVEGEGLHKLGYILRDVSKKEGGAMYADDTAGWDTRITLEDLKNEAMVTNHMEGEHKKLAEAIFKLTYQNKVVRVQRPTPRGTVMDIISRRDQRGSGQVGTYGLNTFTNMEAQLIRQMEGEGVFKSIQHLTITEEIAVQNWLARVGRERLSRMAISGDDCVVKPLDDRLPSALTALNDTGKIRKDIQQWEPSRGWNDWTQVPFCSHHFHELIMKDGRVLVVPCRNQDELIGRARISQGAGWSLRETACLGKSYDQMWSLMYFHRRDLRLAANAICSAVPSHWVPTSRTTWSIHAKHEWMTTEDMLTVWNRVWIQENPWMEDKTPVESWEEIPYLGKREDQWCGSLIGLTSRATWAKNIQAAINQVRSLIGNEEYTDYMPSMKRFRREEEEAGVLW
Paired box protein Pax-8, sequence (Q06710 whole entry): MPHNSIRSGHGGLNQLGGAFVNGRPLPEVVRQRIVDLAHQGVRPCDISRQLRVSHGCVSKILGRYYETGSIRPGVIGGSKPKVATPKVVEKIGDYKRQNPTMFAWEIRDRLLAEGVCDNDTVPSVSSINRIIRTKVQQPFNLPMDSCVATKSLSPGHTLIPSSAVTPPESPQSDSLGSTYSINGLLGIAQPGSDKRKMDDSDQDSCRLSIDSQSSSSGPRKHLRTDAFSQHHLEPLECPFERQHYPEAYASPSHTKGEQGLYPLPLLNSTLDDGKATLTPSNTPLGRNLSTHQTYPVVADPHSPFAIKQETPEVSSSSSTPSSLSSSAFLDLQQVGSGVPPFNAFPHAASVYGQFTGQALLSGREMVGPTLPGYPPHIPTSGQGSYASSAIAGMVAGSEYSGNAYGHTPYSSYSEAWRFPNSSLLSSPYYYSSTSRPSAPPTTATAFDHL

SMILES: COc1ccc(C(C(=O)NC2CCCCC2)N(C(=O)CCl)c2ccc(C)cc2)cc1 (centres undefined)
- AC50 [1]: 0.533 µM (active)
- EC50 [2]: 0.84 µM (inconclusive)
- IC50 [3]: > 80 µM (inactive)
- EC50 [4]: 2.63 µM (active)
- EC50 [5]: 0.748 µM (active)
- IC50 [6]: 17.5 µM (active)
- EC50 [7]: 9.18 µM (active)
- EC50 [8]: 6.27 µM (active)
- IC50 [9]: 7.21 µM (active)
- EC50 [10]: 15.6 µM (active)
- IC50 [11]: 5.75 µM (active)
- AC50 [12]: 0.827 µM (active)

SMILES: COc1cccc(CN(C)C(=O)c2ccc(OCC(=O)Nc3cccc(C(F)(F)F)c3)c(OC)c2)c1
- AC50 [18]: 14.4 µM (active)
- AC50 [19]: 3.38 µM (active)
- IC50 [3]: > 80 µM (inactive)
- IC50 [20]: 4.57 µM (active)
- AC50 [21]: 4.93 µM (active)

SMILES: O=C(Nc1ccc2c(c1)OCCO2)c1ccc(Cl)cc1Cl
- AC50 [22]: 11.6 µM (active)
- AC50 [23]: 15.2 µM (active)
- AC50 [24]: > 52 µM (inactive)
- AC50 [25]: > 52 µM (inactive)

SMILES: Cc1cccc(C2(c3cccc(C)c3)OC(=O)c3ccccc32)c1
- IC50 [27]: > 23.2 µM (inactive)
- AC50 [28]: 17.7 µM (active)
- IC50 [29]: > 69.5 µM (inactive)

SMILES: CCN1C(=O)/C(=C/c2ccc(C)s2)NC1=S
- IC50 [27]: > 69.5 µM (inactive)
- IC50 [29]: > 69.5 µM (inactive)

SMILES: Cc1cc(S(=O)(=O)Nc2ccc(C(=O)NCC3(N4CCCCC4)CCCCC3)cc2)ccc1F
- AC50 [26]: > 30 µM (inactive)

More lines, main results first:

- IC50 [13]: 39.4 µM (active)
- EC50 [14]: 12.3 µM (active)
- EC50 [15]: 20.9 µM (active)
- IC50 [16]: > 94.1 µM (inactive)
SMILES: CCC(=O)Nc1ccc2nc3c(O)nc(S)nc3nc2c1

- IC50 [17]: 35 µM (not active)
SMILES: CCCc1cc(O)n2c(n1)nc1ccccc12

- AC50 [26]: > 30 µM (inactive)
SMILES: CN(C)C(=O)c1cc(C(=O)c2ccc(C(F)(F)F)cc2F)c[nH]1

- IC50 [29]: > 69.5 µM (inactive)
SMILES: Cc1ccc(S(=O)(=O)N2CCCCC2)cc1NC(=O)CNc1ccc(C(F)(F)F)cc1
- IC50 [27]: 8.89 µM (active)

- EC50 [30]: > 79.4 µM (not active)
- EC50 [31]: > 79.4 µM (inactive)
- IC50 [17]: 15.5 µM (not active)
- EC50 [32]: > 79.4 µM (not active)
SMILES: Cc1cn(S(=O)(=O)c2ccc(Br)c3ccccc23)cn1
